From patent US7456214B2, “Chromene-containing compounds with anti-tubulin and vascular targeting activity” (Baylor University, priority 2004, dated 2008)
≈ marks a conversion by molar mass, not a printed value. Structures can show the parent of a compound that is named as a salt.

Columns and labels:
[1] = system: purified tubulin; assay: In vitro inhibition of tubulin polymerization; type: biochemical, bovine; conditions: 1.5 mg/ml tubulin, 15 min preincubation at 37° C., GTP-induced, 350 nm
Description: IC50 values for tubulin polymerization were determined according to a previously described procedure (Bai et al., Cancer Research, 1996). Purified tubulin is obtained from bovine brain cells as previously described (Hamel and Lin, Biochemistry, 1984). Various amounts of inhibitor were preincubated for 15 minutes at 37° C. with purified tubulin. After the incubation period, the reaction was cooled and GTP was added to induce tubulin polymerization. Polymerization was then monitored in a Gilford spectrophotometer at 350 nm. The final reaction mixtures (0.25 ml) contained 1.5 mg/ml tubulin, 0.6 mg/ml microtubule-associated proteins (MAPs), 0.5 mM GTP, 0.5 mM MgCl2, 4% DMSO and 0.1M 4-morpholineethanesulfonate buffer (MES, pH 6.4). IC50 is the amount of inhibitor needed to inhibit tubulin polymerization 50% with respect to the amount of […] that occurs in the absence of inhibitor.

[2] = system: MHEC-5T hemangioendothelioma tumor; assay: Inhibition of tumor blood flow, Fluorescent Bead Assay; type: in vivo, SCID mice; conditions: 24 hours post-treatment, vessel area per tumor tissue area as percentage of control
Description: The antivascular effects of the chromene phosphate prodrug were assessed in tumor-bearing mice using a Fluorescent Bead Assay. A MHEC-5T hemangioendothelioma tumor model was established by subcutaneous injection of 0.5×10^6 cultured transformed cell murine myocardial vascular endothelial cell line (“MHEC5-T”) cells into the right flank of Fox Chase CB-17 Severe Combined Immunodeficient (“SCID”) mice. […] At 24 hours post-treatment, mice were injected intravenously with 0.25 ml of diluted FluoSphere beads (1:6 in physiological saline) in the tail vein, sacrificed after 3 minutes, and tumor was excised for cryosectioning. Tumor cryosections at a thickness of 8 um were directly examined using quantitative fluorescent microscopy. Blood vessels were indicated by blue fluorescence from injected beads. For quantification, image analysis of 3 sections from three tumors treated in each group were examined and vascular shutdown was expressed as vessel area (mm^2) per tumor tissue area (mm^2) as a percentage of the control (“% VAPM”).

[3] = system: MCF-7; assay: Growth inhibition, MCF-7 breast cancer cells (SRB); type: cell-based; conditions: Homo sapiens, MCF7, 48 hours incubation, read-out: GI50 for Cell Line MCF-7
Description: (§1) Newly prepared compounds were evaluated for cytotoxic activity against a variety of cell lines derived from human tumors using an assay system similar to the National Cancer Institute procedure previously described (Monks et al, J. Natl. Cancer Inst., 1991). Briefly, the cell suspensions, diluted according to the particular cell type and the expected target cell density (5,000-40,000 cells per well based on cell growth characteristics), were added by pipet (100 μl) to 96-well microtiter plates. Inoculates were allowed a preincubation time of 24-28 hours at 37° C. for stabilization. Incubation with the inhibitor compounds lasted for 48 hours in […] atmosphere and 100% humidity. Determination of cell growth was performed by in situ fixation of cells, followed by staining with a protein-binding dye sulforhodamine B (SRB), which binds to the basic amino acids of cellular macromolecules. The solubilized stain was measured spectrophotometrically.
(§2) Several compounds were evaluated for cytotoxic activity against […] P388 leukemia cell lines. The effective dose or ED50 value (defined as the effective dosage required to inhibit 50% of cell growth) was measured. These and additional compounds were evaluated in terms of growth inhibitory activity against several other human cancer cell lines including: central nervous system (“CNS”, SF-268), pancreas (BXPC-3), non-small cell lung cancer (“lung-NCS”, NCI-H460), breast (MCF-7), colon (KM20L2), ovarian (OVCAR-3), and prostate (DU-145). The growth inhibition GI50(defined as the dosage required to inhibit tumor cell growth by 50%) is listed for each cell line.

[4] = system: P388 leukemia cell lines; assay: In vitro cytotoxicity, P388 leukemia cells (SRB); type: cell-based; conditions: for IC50: P388, 48 hours incubation, read-out: ED50 for P-388 Cell Line
Description: as §1, §2

[5] = system: DU-145; assay: Growth inhibition, DU-145 prostate cancer cells (SRB); type: cell-based; conditions: Homo sapiens, 48 hours incubation, read-out: GI50 for Cell Line DU-145
Description: as §1, §2

[6] = system: KM20L2; assay: Growth inhibition, KM20L2 colon cancer cells (SRB); type: cell-based; conditions: Homo sapiens, KM-20L2, 48 hours incubation, read-out: GI50 for Cell Line KM20L2
Description: as §1, §2

[7] = system: SF-268; assay: Growth inhibition, SF-268 CNS cancer cells (SRB); type: cell-based; conditions: Homo sapiens, 48 hours incubation, read-out: GI50 for Cell Line SF-268
Description: as §1, §2

[8] = system: NCI-H460; assay: Growth inhibition, NCI-H460 non-small cell lung cancer cells (SRB); type: cell-based; conditions: Homo sapiens, 48 hours incubation, read-out: GI50 for Cell Line NCI-H460
Description: as §1, §2

[9] = system: BXPC-3; assay: Growth inhibition, BXPC-3 pancreas cancer cells (SRB); type: cell-based; conditions: Homo sapiens, 48 hours incubation, read-out: GI50 for Cell Line BXPC-3
Description: as §1, §2

| SMILES | IC50 [1] [µM] | % VAPM at 10 mg/kg dose ([2]; 10 mg/kg single i.p.) [%] | % VAPM at 100 mg/kg dose ([2]; 100 mg/kg single i.p.) [%] | GI50 [3] [µg/mL] | ED50 for P-388 Cell Line ([4]; 48 hours incubation) [µg/mL] | GI50 [5] [µg/mL] | GI50 [6] [µg/mL] | GI50 [7] [µg/mL] | GI50 [8] [µg/mL] | GI50 [9] [µg/mL] | IC50 [4] [µg/mL] |
| --- | --- | --- | --- | --- | --- | --- | --- | --- | --- | --- | --- |
| COc1ccc2c(c1O)OCC(C(=O)c1cc(OC)c(OC)c(OC)c1)=C2 [Compound 5, 3-(3′,4′,5′-Trimethoxybenzoyl)-7-methoxy-8-hydroxy-2H-chromene] | 1 to 2 | 80 | 90 | 0.055 (≈ 0.148 µM) | – | – | – | – | – | – | – |
| COc1ccc2c(c1)OCC(C(=O)c1cc(OC)c(OC)c(OC)c1)=C2 [Compound 8, 3-(3′,4′,5′-Trimethoxybenzoyl)-7-methoxy-2H-chromene] | 4 to 10 | – | – | 0.27 (≈ 0.758 µM) | 2.04 | – | – | – | – | – | – |
| COc1cc2c(cc1O)C=C(C(=O)c1cc(OC)c(OC)c(OC)c1)CO2 [Compound 9, 3-(3′,4′,5′-Trimethoxybenzoyl)-6-hydroxy-7-methoxy-2H-chromene] | > 40 | – | – | 7.3 (≈ 19.6 µM) | – | 3.9 (≈ 10.5 µM) | > 10 | > 10 | 5.5 (≈ 14.8 µM) | 7.1 (≈ 19.1 µM) | 28.2 (≈ 75.7 µM) |
| COc1cc(C(=O)C2=Cc3ccc(OC)c(OC)c3OC2)cc(OC)c1OC [Compound 12, 3-(3′,4′,5′-Trimethoxybenzoyl)-7,8-dimethoxy-2H-chromene] | 20 | – | – | 0.48 (≈ 1.24 µM) | – | 0.16 (≈ 0.414 µM) | 0.4 (≈ 1.04 µM) | 0.34 (≈ 0.88 µM) | 0.37 (≈ 0.958 µM) | 0.46 (≈ 1.19 µM) | 0.41 (≈ 1.06 µM) |
| COc1cc2c(cc1OC)OCC(C(=O)c1cc(OC)c(OC)c(OC)c1)=C2 [Compound 13, 3-(3′,4′,5′-Trimethoxybenzoyl)-6,7-dimethoxy-2H-chromene] | 20 | – | – | 0.56 (≈ 1.45 µM) | – | 0.42 (≈ 1.09 µM) | 0.4 (≈ 1.04 µM) | 0.5 (≈ 1.29 µM) | 0.4 (≈ 1.04 µM) | 0.38 (≈ 0.983 µM) | 2.5 (≈ 6.47 µM) |
| COc1cc(OC)c2c(c1)OCC(C(=O)c1cc(OC)c(OC)c(OC)c1)=C2 [Compound 14, 3-(3′,4′,5′-Trimethoxybenzoyl)-5,7-dimethoxy-2H-chromene] | 20 | – | – | 0.47 (≈ 1.22 µM) | – | 0.24 (≈ 0.621 µM) | 0.37 (≈ 0.958 µM) | 0.4 (≈ 1.04 µM) | 0.4 (≈ 1.04 µM) | 0.43 (≈ 1.11 µM) | 16.3 (≈ 42.2 µM) |
| COc1cc(C(=O)C2=Cc3cccc(O)c3OC2)cc(OC)c1OC [Compound 15, 3-(3′,4′,5′-Trimethoxybenzoyl)-8-hydroxy-2H-chromene] | 2 to 4 | – | – | 0.21 (≈ 0.613 µM) | – | 0.026 (≈ 0.0759 µM) | 4 (≈ 11.7 µM) | 0.048 (≈ 0.14 µM) | 0.044 (≈ 0.129 µM) | 2.4 (≈ 7.01 µM) | 0.093 (≈ 0.272 µM) |
| COc1cc(C(=O)C2=Cc3cccc(OP(=O)(O)O)c3OC2)cc(OC)c1OC [Compound 16, 3-(3′,4′,5′-Trimethoxybenzoyl)-8-phosphate-2H-chromene disodium salt] | – | – | – | 0.45 | – | 0.046 | 5.4 | 0.058 | 0.12 | 1.6 | 0.019 |
| COc1cc(C(=O)C2=Cc3ccc(O)c(O)c3OC2)cc(OC)c1OC [Compound 17, 3-(3′,4′,5′-Trimethoxybenzoyl)-7,8-dihydroxy-2H-chromene] | 10 to 20 | – | – | 0.48 (≈ 1.34 µM) | – | 0.23 (≈ 0.642 µM) | 6.3 (≈ 17.6 µM) | 0.32 (≈ 0.893 µM) | 0.34 (≈ 0.949 µM) | 3 (≈ 8.37 µM) | 1.8 (≈ 5.02 µM) |
| COc1cc(C(=O)C2=Cc3ccc(OP(=O)(O)O)c(OP(=O)(O)O)c3OC2)cc(OC)c1OC [Compound 18, 3-(3′,4′,5′-Trimethoxybenzoyl)-7,8-diphosphate-2H-chromene tetrasodium salt] | > 40 | – | – | 4.2 | – | 2.2 | > 10 | 3.4 | 3.5 | > 10 | 0.56 |
